From PubChem BioAssay AID504479 (NMMLSC, 2011) come the findings set out here.

What all share (assay): GFP reporter expression in TORC1-bypass yeast, mechanism study for yeast TOR pathway modulator project, S. cerevisiae, TORC1 bypass vs wild-type strains (AID 504479)
What all share (details): fluorescence ratio vs DMSO, at 10 µM

The test system of experiment [1] is YNL142W.
Experiment [2] deals with YCL025C.
In experiment [3] the test system is BY4741.
Experiment [4] has as its system YCR005C.
The test system of experiment [5] is YBR084C-A.
Experiment [6] has as its system YKL103C.
The mark [7] stands for this setting: MEP2-GFP in TORC1 bypass strain, stronger effect = higher value.
Where [8] appears, read: AGP1-GFP in TORC1 bypass strain, stronger effect = higher value.
Where [9] appears, read: CIT2-GFP in TORC1 bypass strain, stronger effect = higher value.
Where [10] appears, read: RPL19A-GFP in TORC1 bypass strain, stronger effect = lower value.
Setting [11] is: LAP4-GFP in TORC1 bypass strain, stronger effect = higher value.

The source made the active and inactive calls.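 How the source made its calls: active means GFP ratio vs DMSO below 0.65 in a strain, using the primary screen cutoff set for that strain's protein target; inactive means the rest.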

`Cc1ccc(S(=O)(=O)c2ncccc2[N+](=O)[O-])cc1`: the GFP ratio vs DMSO was 1.01 in experiment [1] (setting [7]); 0.788 (inactive) in experiment [1]; 0.888 in experiment [2] (setting [8]); 0.84 (inactive) in experiment [2]; 1.09 (inactive) in experiment [3]; 0.847 in experiment [4] (setting [9]). Further, the GFP ratio vs DMSO in experiment [4] is 0.688 (inactive); in experiment [5] (setting [10]), 0.99; in experiment [5], 1.04 (inactive); in experiment [6] (setting [11]) it was 1.5; in experiment [6], 1.82.

On to `Cc1ccc(C(c2cc(Cl)c3cccnc3c2O)N2CCN(C)CC2)cc1` (stereo unspecified), for which the GFP ratio vs DMSO is 1.03 in experiment [1] (setting [7]); 0.862 (inactive) in experiment [1]; 0.652 in experiment [2] (setting [8]); 0.76 (inactive) in experiment [2]; 0.736 (inactive) in experiment [3]; 0.583 in experiment [4] (setting [9]). Besides, the GFP ratio vs DMSO in experiment [4] is 0.808 (inactive); in experiment [5] (setting [10]) it was 0.949; in experiment [5], 0.938 (inactive); in experiment [6] (setting [11]) it was 1.23; in experiment [6] it was 1.63.

In the case of `COc1ccc(C(=O)NNC(=S)NC(=O)/C=C/c2cccs2)cc1`, the GFP ratio vs DMSO in experiment [1] (setting [7]) was 1; in experiment [1] it was 1.15 (inactive); in experiment [2] (setting [8]), 0.916; in experiment [2], 1.18 (inactive); in experiment [3], 1.24 (inactive); in experiment [4] (setting [9]), 0.971. The GFP ratio vs DMSO is 1.2 (inactive) in experiment [4]; 1.04 in experiment [5] (setting [10]); 1.27 (inactive) in experiment [5]; 1.16 in experiment [6] (setting [11]); 1.72 in experiment [6].

Turning to `CC(C)(C)n1nc(-c2ccc(Cl)cc2)c2c(N)ncnc21`, the GFP ratio vs DMSO in experiment [1] (setting [7]) was 0.887; in experiment [1], 1.04 (inactive); in experiment [2] (setting [8]), 0.927; in experiment [2], 0.943 (inactive); in experiment [3], 0.794 (inactive); in experiment [4] (setting [9]), 0.547. Further, the GFP ratio vs DMSO in experiment [4] is 0.359 (inactive); in experiment [5] (setting [10]) it was 0.612; in experiment [5] it was 0.547; in experiment [6] (setting [11]) it was 1.2; in experiment [6], 1.48 (inactive).

As for `Cc1ccc(C(=O)NNC(=S)NC(=O)COc2ccccc2)cc1`, the GFP ratio vs DMSO was 1.25 in experiment [1] (setting [7]); 1.22 (inactive) in experiment [1]; 0.914 in experiment [2] (setting [8]); 1.11 (inactive) in experiment [2]; 1.29 (inactive) in experiment [3]; 0.861 in experiment [4] (setting [9]). The GFP ratio vs DMSO is 0.988 (inactive) in experiment [4]; 1.22 in experiment [5] (setting [10]); 1.27 (inactive) in experiment [5]; 1.45 in experiment [6] (setting [11]); 2.49 in experiment [6].

In the case of `Cc1ccc(/C=C2/C(=O)ON=C2c2ccccc2)o1`, the GFP ratio vs DMSO in experiment [1] (setting [7]) is 1.21; in experiment [1], 1.23 (inactive); in experiment [2] (setting [8]) it was 0.642; in experiment [2] it was 0.87 (inactive); in experiment [3], 0.941 (inactive); in experiment [4] (setting [9]), 0.898. Further, the GFP ratio vs DMSO was 1.23 (inactive) in experiment [4]; 0.962 in experiment [5] (setting [10]); 1 (inactive) in experiment [5]; 1.15 in experiment [6] (setting [11]); 1.99 in experiment [6].

Consider `Cc1ccc(S(=O)(=O)c2ccc([N+](=O)[O-])cn2)cc1`, for which the GFP ratio vs DMSO in experiment [1] (setting [7]) was 0.948; in experiment [1] it was 1.29 (inactive); in experiment [2] (setting [8]), 0.813; in experiment [2], 1.11 (inactive); in experiment [3] it was 0.941 (inactive); in experiment [4] (setting [9]) it was 0.861. Moreover, the GFP ratio vs DMSO in experiment [4] is 1.05 (inactive); in experiment [5] (setting [10]), 0.938; in experiment [5] it was 0.929 (inactive); in experiment [6] (setting [11]), 1.67; in experiment [6], 2.26.

As to `O=C(CCc1ccccc1)NNC(=S)NC(=O)c1ccccc1`, the GFP ratio vs DMSO is 1.28 in experiment [1] (setting [7]); 1.3 (inactive) in experiment [1]; 0.882 in experiment [2] (setting [8]); 1.09 (inactive) in experiment [2]; 1.32 (inactive) in experiment [3]; 0.847 in experiment [4] (setting [9]). Also, the GFP ratio vs DMSO in experiment [4] is 1.04 (inactive); in experiment [5] (setting [10]) it was 1.33; in experiment [5], 1.31 (inactive); in experiment [6] (setting [11]) it was 1.88; in experiment [6], 3.08.

For `O=[N+]([O-])c1ccc(S(=O)(=O)c2cccc(C(F)(F)F)c2)nc1`, the GFP ratio vs DMSO in experiment [1] (setting [7]) is 1.04; in experiment [1], 1.52 (inactive); in experiment [2] (setting [8]) it was 0.813; in experiment [2] it was 1.04 (inactive); in experiment [3], 1.03 (inactive); in experiment [4] (setting [9]) it was 0.934. Moreover, the GFP ratio vs DMSO in experiment [4] is 0.976 (inactive); in experiment [5] (setting [10]), 0.969; in experiment [5], 0.902 (inactive); in experiment [6] (setting [11]) it was 1.63; in experiment [6], 2.2.

For `CCCCC(=O)NNC(=S)NC(=O)c1ccc(C)cc1`, the GFP ratio vs DMSO is 1.24 in experiment [1] (setting [7]); 1.22 (inactive) in experiment [1]; 0.974 in experiment [2] (setting [8]); 1.1 (inactive) in experiment [2]; 1.56 (inactive) in experiment [3]; 0.942 in experiment [4] (setting [9]). For the same compound, the GFP ratio vs DMSO in experiment [4] was 1.17 (inactive); in experiment [5] (setting [10]) it was 1.34; in experiment [5], 1.27 (inactive); in experiment [6] (setting [11]), 2.03; in experiment [6] it was 3.37.

For the compound `CC(Oc1ccc(Cl)cc1)C(=O)NNC(=S)NC(=O)c1ccco1` (stereo unspecified), the GFP ratio vs DMSO in experiment [1] (setting [7]) was 1.2; in experiment [1], 1.48 (inactive); in experiment [2] (setting [8]), 0.847; in experiment [2], 0.99 (inactive); in experiment [3] it was 1.44 (inactive); in experiment [4] (setting [9]), 0.788. Further, the GFP ratio vs DMSO in experiment [4] is 0.971 (inactive); in experiment [5] (setting [10]) it was 1.25; in experiment [5], 1.15 (inactive); in experiment [6] (setting [11]) it was 1.7; in experiment [6], 2.67.

`O=C1ON=C(c2ccccc2)/C1=C/c1ccco1`: the GFP ratio vs DMSO in experiment [1] (setting [7]) is 1.01; in experiment [1] it was 1.03 (inactive); in experiment [2] (setting [8]), 0.65; in experiment [2] it was 0.853 (inactive); in experiment [3] it was 0.912 (inactive); in experiment [4] (setting [9]), 0.825. Further, the GFP ratio vs DMSO in experiment [4] was 1.34 (inactive); in experiment [5] (setting [10]), 0.972; in experiment [5], 0.965 (inactive); in experiment [6] (setting [11]) it was 1.17; in experiment [6], 1.64.

Take `O=S(=O)(CCN(CCS(=O)(=O)C(F)(F)F)CC1CCCO1)C(F)(F)F` (stereo unspecified): the GFP ratio vs DMSO is 0.942 in experiment [1] (setting [7]); 0.986 (inactive) in experiment [1]; 0.817 in experiment [2] (setting [8]); 0.958 (inactive) in experiment [2]; 0.958 (inactive) in experiment [3]; 1.29 in experiment [4] (setting [9]). Besides, the GFP ratio vs DMSO is 1.41 (inactive) in experiment [4]; 1.07 in experiment [5] (setting [10]); 1.05 (inactive) in experiment [5]; 1.2 in experiment [6] (setting [11]); 1.85 in experiment [6].

As to `O=C(Oc1c(Cl)cc(Cl)c2cccnc12)c1ccco1`, the GFP ratio vs DMSO was 0.959 in experiment [1] (setting [7]); 1.07 (inactive) in experiment [1]; 0.699 in experiment [2] (setting [8]); 0.897 (inactive) in experiment [2]; 1.18 (inactive) in experiment [3]; 0.81 in experiment [4] (setting [9]). Besides, the GFP ratio vs DMSO in experiment [4] was 0.971 (inactive); in experiment [5] (setting [10]), 1.29; in experiment [5], 1.31 (inactive); in experiment [6] (setting [11]), 1.19; in experiment [6], 1.78.

Turning to `CCCOc1ccc(C(=O)NNC(=S)NC(=O)CC)cc1`, the GFP ratio vs DMSO in experiment [1] (setting [7]) was 1.3; in experiment [1] it was 1.24 (inactive); in experiment [2] (setting [8]), 0.969; in experiment [2] it was 1.17 (inactive); in experiment [3] it was 1.32 (inactive); in experiment [4] (setting [9]), 0.905. Besides, the GFP ratio vs DMSO in experiment [4] was 0.994 (inactive); in experiment [5] (setting [10]) it was 1.36; in experiment [5], 1.33 (inactive); in experiment [6] (setting [11]), 1.92; in experiment [6] it was 2.96.

With `CN1CCN(C(c2ccc(C(F)(F)F)cc2)c2ccc3cccnc3c2O)CC1` (stereo unspecified), the GFP ratio vs DMSO in experiment [1] (setting [7]) is 0.978; in experiment [1], 0.993 (inactive); in experiment [2] (setting [8]), 0.842; in experiment [2], 0.994 (inactive); in experiment [3], 0.792 (inactive); in experiment [4] (setting [9]) it was 0.633. Also, the GFP ratio vs DMSO was 0.641 (inactive) in experiment [4]; 0.96 in experiment [5] (setting [10]); 0.85 (inactive) in experiment [5]; 1.29 in experiment [6] (setting [11]); 1.58 in experiment [6].
